From patent US20250195483A1, “SPIRO PIPERIDINE DERIVATIVES AS INHIBITORS OF APOL1 AND METHODS OF USING SAME” (Vertex Pharmaceuticals Incorporated, priority 2022, published 2025) come the findings set out here.

In this experiment the target is T1, APOL1 (Homo sapiens, UniProt O14791).
T1 sequence (O14791 1-398): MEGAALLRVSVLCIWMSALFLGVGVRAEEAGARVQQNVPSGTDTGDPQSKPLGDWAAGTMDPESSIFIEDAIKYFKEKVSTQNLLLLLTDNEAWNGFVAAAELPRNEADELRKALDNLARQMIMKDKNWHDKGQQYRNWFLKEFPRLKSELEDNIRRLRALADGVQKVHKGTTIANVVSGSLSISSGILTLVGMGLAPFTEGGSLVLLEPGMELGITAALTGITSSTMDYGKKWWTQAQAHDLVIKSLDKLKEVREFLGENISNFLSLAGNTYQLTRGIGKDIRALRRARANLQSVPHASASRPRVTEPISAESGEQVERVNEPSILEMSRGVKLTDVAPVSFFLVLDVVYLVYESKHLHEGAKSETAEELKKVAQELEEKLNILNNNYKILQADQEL
Nature of the experiment: MultiTox-Fluor Multiplex Cytotoxicity Assay, tet-inducible APOL1 T-REx-HEK293 cells (G0, G1 or G2 clone not specified for Table 20). The format is cell-based. Particulars: tet-induced, 24 hours with compound, ratio of dead to live cells, read-out: IP50 (i.e., IC50 for cell proliferation). The essentials: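 HEK293 T-REx cells with tet-inducible APOL1 G0, G1 or G2 clone, 23,400/well, treated with tetracycline plus compound (top 10 μM, 10-point 3-fold, duplicate) for 24 h at 37° C. MultiTox-Fluor dead/live fluorescence ratio, normalized to no-tet (100% viability) and 50 ng/mL tet (0% viability) controls, then curve-fitted.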
Take `Cc1cc2ncc(CN3CCC4(CC3)OC(C(N)=O)c3ccc(Cl)cc34)cn2n1` (stereo not drawn) [Compound 231]: the IC50 was in the range of 50 to 500 nM.

`NC(=O)C1OC2(CCN(Cc3c[nH]c4nccnc34)CC2)c2cc(Cl)ccc21` (stereo not drawn) [Compound 232]: the IC50 was not above 50 nM.

`CNC(=O)c1ccc(CN2CCC3(CC2)OC(C(N)=O)c2ccc(Cl)cc23)cc1` (stereo not drawn) [Compound 233]: the IC50 is not above 50 nM.

As for `NC(=O)C1OC2(CCN(Cc3cnc[nH]3)CC2)c2cc(Cl)ccc21` (stereo not drawn) [Compound 234], the IC50 was not above 50 nM.

In the case of `NC(=O)C1OC2(CCN(Cc3cnn(C4CCOCC4)c3)CC2)c2cc(Cl)ccc21` (stereo not drawn) [Compound 235], the IC50 was not above 50 nM.

For `COCCn1cc(CN2CCC3(CC2)OC(C(N)=O)c2ccc(Cl)cc23)cn1` (stereo not drawn) [Compound 236], the IC50 fell in the range of 50 to 500 nM.

`Cc1noc2ncc(CN3CCC4(CC3)OC(C(N)=O)c3ccc(Cl)cc34)cc12` (stereo not drawn) [Compound 237]: the IC50 fell in the range of 50 to 500 nM.

Regarding `NC(=O)C1OC2(CCN(Cc3cnc4c(c3)COCC4)CC2)c2cc(Cl)ccc21` (stereo not drawn) [Compound 238], the IC50 is not below 500 nM.

Regarding `NC(=O)C1OC2(CCN(Cc3cnn(-c4cccnc4)c3)CC2)c2cc(Cl)ccc21` (stereo not drawn) [Compound 239], the IC50 is not above 50 nM.

In the case of `NC(=O)c1cccc(CN2CCC3(CC2)OC(C(N)=O)c2ccc(Cl)cc23)c1F` (stereo not drawn) [Compound 240], the IC50 is not below 500 nM.

Take `CC1(n2cc(CN3CCC4(CC3)OC(C(N)=O)c3ccc(Cl)cc34)cn2)CCS(=O)(=O)C1` (stereo not drawn) [Compound 241]: the IC50 was not below 500 nM.

For `NC(=O)C1OC2(CCN(Cc3cc(C4CC4)[nH]n3)CC2)c2cc(Cl)ccc21` (stereo not drawn) [Compound 242], the IC50 lay within 50 to 500 nM.

Regarding `NC(=O)C1OC2(CCN(Cc3ccc(S(N)(=O)=O)cc3F)CC2)c2cc(Cl)ccc21` (stereo not drawn) [Compound 243], the IC50 lay in the range of 50 to 500 nM.

In the case of `CNc1ncc(CN2CCC3(CC2)OC(C(N)=O)c2ccc(Cl)cc23)cn1` (stereo not drawn) [Compound 244], the IC50 is not above 50 nM.

Consider `NC(=O)c1cnc(CN2CCC3(CC2)OC(C(N)=O)c2ccc(Cl)cc23)cn1` (stereo not drawn) [Compound 245], for which the IC50 was in the range of 50 to 500 nM.

Take `COC(=O)c1ccc(CN2CCC3(CC2)OC(C(N)=O)c2ccc(Cl)cc23)cn1` (stereo not drawn) [Compound 246]: the IC50 is not above 50 nM.

For the compound `Cc1cc(CN2CCC3(CC2)OC(C(N)=O)c2ccc(Cl)cc23)nn1C` (stereo not drawn) [Compound 247], the IC50 was not below 500 nM.

For `NC(=O)C1OC2(CCN(Cc3c[nH]c4cnccc34)CC2)c2cc(Cl)ccc21` (stereo not drawn) [Compound 248], the IC50 is not above 50 nM.

For `NC(=O)C1OC2(CCN(Cc3cc4n(n3)CCOC4)CC2)c2cc(Cl)ccc21` (stereo not drawn) [Compound 249], the IC50 was not below 500 nM.

Take `COC(=O)c1ccc(CN2CCC3(CC2)OC(C(N)=O)c2ccc(Cl)cc23)nc1` (stereo not drawn) [Compound 250]: the IC50 was 50 to 500 nM.

For `NC(=O)C1OC2(CCN(Cc3cnc(C4CC4)o3)CC2)c2cc(Cl)ccc21` (stereo not drawn) [Compound 251], the IC50 was in the range of 50 to 500 nM.

In the case of `NC(=O)C1OC2(CCN(Cc3cncnc3)CC2)c2cc(Cl)ccc21` (stereo not drawn) [Compound 252], the IC50 was not below 500 nM.

With `Cn1cc(CN2CCC3(CC2)OC(C(N)=O)c2ccc(Cl)cc23)ccc1=O` (stereo not drawn) [Compound 253], the IC50 was 50 to 500 nM.

For `NC(=O)C1OC2(CCN(Cc3cnn4c3NCCC4)CC2)c2cc(Cl)ccc21` (stereo not drawn) [Compound 254], the IC50 is not below 500 nM.

Consider `NC(=O)C1OC2(CCN(Cc3cocn3)CC2)c2cc(Cl)ccc21` (stereo not drawn) [Compound 255], for which the IC50 was not below 500 nM.

As to `NC(=O)C1OC2(CCN(Cc3cnc(N)nc3)CC2)c2cc(Cl)ccc21` (stereo not drawn) [Compound 256], the IC50 was in the range of 50 to 500 nM.

Regarding `NC(=O)C1OC2(CCN(Cc3cnn(C4CC4)c3N)CC2)c2cc(Cl)ccc21` (stereo not drawn) [Compound 257], the IC50 is 50 to 500 nM.

Take `Cc1cc(CN2CCC3(CC2)OC(C(N)=O)c2ccc(Cl)cc23)on1` (stereo not drawn) [Compound 258]: the IC50 was not below 500 nM.

Turning to `NC(=O)C1OC2(CCN(Cc3ccno3)CC2)c2cc(Cl)ccc21` (stereo not drawn) [Compound 259], the IC50 was not below 500 nM.

Take `Cc1ncc(CN2CCC3(CC2)OC(C(N)=O)c2ccc(Cl)cc23)o1` (stereo not drawn) [Compound 260]: the IC50 was in the range of 50 to 500 nM.

As for `Cc1cc(CN2CCC3(CC2)OC(C(N)=O)c2ccc(Cl)cc23)ccn1` (stereo not drawn) [Compound 261], the IC50 fell in the range of 50 to 500 nM.

On to `NC(=O)C1OC2(CCN(Cc3c[nH]c4ccncc34)CC2)c2cc(Cl)ccc21` (stereo not drawn) [Compound 264], for which the IC50 is not below 500 nM.

For `Cc1cc(CN2CCC3(CC2)OC(C(N)=O)c2ccc(Cl)cc23)no1` (stereo not drawn) [Compound 265], the IC50 is not below 500 nM.

Regarding `NC(=O)c1cccc(CN2CCC3(CC2)OC(C(N)=O)c2ccc(Cl)cc23)c1` (stereo not drawn) [Compound 266], the IC50 is not below 500 nM.

With `CC(C)(C)c1ncc(CN2CCC3(CC2)OC(C(N)=O)c2ccc(Cl)cc23)cn1` (stereo not drawn) [Compound 267], the IC50 was not below 500 nM.

Take `Cc1cccc(CN2CCC3(CC2)OC(C(N)=O)c2ccc(Cl)cc23)n1` (stereo not drawn) [Compound 268]: the IC50 is not below 500 nM.

On to `Cn1ccc(CN2CCC3(CC2)OC(C(N)=O)c2ccc(Cl)cc23)cc1=O` (stereo not drawn) [Compound 269], for which the IC50 was not below 500 nM.

With `NC(=O)C1OC2(CCN(Cc3ccc[nH]c3=O)CC2)c2cc(Cl)ccc21` (stereo not drawn) [Compound 270], the IC50 is not below 500 nM.

With `Cn1cc(CN2CCC3(CC2)OC(C(N)=O)c2ccc(Cl)cc23)c(=O)n(C)c1=O` (stereo not drawn) [Compound 271], the IC50 was not below 500 nM.

For `NC(=O)C1OC2(CCN(Cc3cnccn3)CC2)c2cc(Cl)ccc21` (stereo not drawn) [Compound 272], the IC50 was not below 500 nM.

Regarding `Cn1cnc(CN2CCC3(CC2)OC(C(N)=O)c2ccc(Cl)cc23)c1` (stereo not drawn) [Compound 273], the IC50 was not below 500 nM.

For the compound `NC(=O)C1OC2(CCN(Cc3ccc(F)c(S(N)(=O)=O)c3)CC2)c2cc(Cl)ccc21` (stereo not drawn) [Compound 274], the IC50 is not below 500 nM.

Turning to `Cc1c(CN2CCC3(CC2)OC(C(N)=O)c2ccc(Cl)cc23)cnn1C` (stereo not drawn) [Compound 275], the IC50 was not below 500 nM.

Regarding `Cc1nc(C)c(CN2CCC3(CC2)OC(C(N)=O)c2ccc(Cl)cc23)o1` (stereo not drawn) [Compound 276], the IC50 was not below 500 nM.

As for `CC(C)(O)[C@@H](O)Cn1cc(CN2CCC3(CC2)OC(C(N)=O)c2ccc(Cl)cc23)cn1` (stereo partly drawn) [Compound 277, 5-chloro-1′-[[1-[(2S)-2,3-dihydroxy-3-methyl-butyl]pyrazol-4-yl]methyl]spiro[1H-isobenzofuran-3,4′-piperidine]-1-carboxamide], the IC50 is not above 50 nM.

For `CC(C)(O)[C@H](O)Cn1cc(CN2CCC3(CC2)OC(C(N)=O)c2ccc(Cl)cc23)cn1` (stereo partly drawn) [Compound 278, 5-chloro-1′-[[1-[(2R)-2,3-dihydroxy-3-methyl-butyl]pyrazol-4-yl]methyl]spiro[1H-isobenzofuran-3,4′-piperidine]-1-carboxamide], the IC50 is not above 50 nM.

On to `CC(CO)(CO)Cn1cc(CN2CCC3(CC2)OC(C(N)=O)c2ccc(Cl)cc23)cn1` (stereo not drawn) [Compound 279, 5-chloro-1′-[[1-[3-hydroxy-2-(hydroxymethyl)-2-methyl-propyl]pyrazol-4-yl]methyl]spiro[1H-isobenzofuran-3,4′-piperidine]-1-carboxamide], for which the IC50 is not above 50 nM.

Take `NC(=O)C1OC2(CCN(Cc3cnn(CC(O)C4(O)CCC4)c3)CC2)c2cc(Cl)ccc21` (stereo not drawn) [Compound 280, 5-chloro-1′-[[1-[2-hydroxy-2-(1-hydroxycyclobutyl)ethyl]pyrazol-4-yl]methyl]spiro[1H-isobenzofuran-3,4′-piperidine]-1-carboxamide]: the IC50 is not above 50 nM.

In the case of `NC(=O)C1OC2(CCN(Cc3cnn(CC(O)C4(O)CCOCC4)c3)CC2)c2cc(Cl)ccc21` (stereo not drawn) [Compound 281], the IC50 is not above 50 nM.

On to `NC(=O)C1OC2(CCN(Cc3cnn(CC4(O)CCS(=O)(=O)CC4)c3)CC2)c2cc(Cl)ccc21` (stereo not drawn) [Compound 282], for which the IC50 was not above 50 nM.

For the compound `NC(=O)C1OC2(CCN(Cc3cnn(C[C@@H](O)CO)c3)CC2)c2cc(Cl)ccc21` (stereo partly drawn) [Compound 283], the IC50 lay in the range of 50 to 500 nM.

Regarding `CN(C)C(=O)Cn1cc(CN2CCC3(CC2)OC(C(N)=O)c2ccc(Cl)cc23)cn1` (stereo not drawn) [Compound 284], the IC50 fell in the range of 50 to 500 nM.

Consider `NC(=O)Cn1cc(CN2CCC3(CC2)OC(C(N)=O)c2ccc(Cl)cc23)cn1` (stereo not drawn) [Compound 285], for which the IC50 was in the range of 50 to 500 nM.

For the compound `Cc1ccc2c(c1)C1(CCN(Cc3cnn(C)c3)CC1)OC2` [Compound 286, 5-methyl-1′-[(1-methylpyrazol-4-yl)methyl]spiro[1H-isobenzofuran-3,4′-piperidine]], the IC50 is not below 500 nM.

In the case of `Cc1ccc2c(c1)C1(CCN(Cc3ccc(OCC(C)(C)N)nc3)CC1)OC2(C)C` [Compound 288, 2-methyl-1-[[5-[(1,1,5-trimethylspiro[isobenzofuran-3,4′-piperidine]-1′-yl)methyl]-2-pyridyl]oxy]propan-2-amine], the IC50 lay in the range of 50 to 500 nM.

As to `Cc1ccc2c(c1)C1(CCN(Cc3cnn(CCS(C)(=O)=O)c3)CC1)OC2(C)C` [Compound 289, 1,1,5-trimethyl-1′-[[1-(2-methylsulfonylethyl)pyrazol-4-yl]methyl]spiro[isobenzofuran-3,4′-piperidine]], the IC50 is not below 500 nM.

Take `C[C@H]1CC2(CCN1Cc1cnn(-c3ccccc3)c1)OC(C(N)=O)c1ccc(Cl)cc12` (stereo partly drawn) [Compound 292, (2′S)-5-chloro-2′-methyl-1′-[(1-phenylpyrazol-4-yl)methyl]spiro[1H-isobenzofuran-3,4′-piperidine]-1-carboxamide]: the IC50 is not above 50 nM.
